Source: US20230074200A1 (priority 2021, published 2023)
Several values for one entry are separate records, joined by “and”; a condition that tells them apart may be missing. Identical values can stand only once. Like-named read-outs stand apart in the source and are kept apart here.

What was measured:
[1] = rat, in vivo, sc, 2 mg/kg
[2] = system: rats lethally challenged with 110 U/kg BoNT/A (2.5 LD50); settings: rat, in vivo
[3] = system: diaphragm motor endplates of BoNT/A intoxicated rats; settings: rat, in vivo
[4] = rat, in vivo; for behavioral seizure (%) / gait change (%) / max Racine score / mortality (%) / salivation (%): sc
[5] = rat, in vivo; for behavioral seizure (%) / gait change (%) / max Racine score / mortality (%) / salivation (%): sc; remark: listed apart in the source
[6] = rat, in vivo
[7] = system: rats lethally intoxicated with 2.5 LD50 BoNT/A; settings: rat, in vivo
BoNT/A-intoxicated mice = settings: mouse, in vivo; cited from earlier work
[8] = system: isolated mouse diaphragms poisoned by multiple BoNT serotypes; settings: cited from earlier work

Nc1ccncc1N [3,4-DAP, 3,4-diaminopyridine]
VO2 [1]: transient increases | respiratory rate [1]: transient increases | tidal volume [1]: transient increases | survival rate at the final injection [2]: 100% | time to reduction of toxic signs compared to vehicle [2]: ≤ 30 min | time after cessation of treatment at which toxic signs worsened ([2]; 2 mg/kg): approximately 1.5 h | time of death after the final injection ([2]; 2 mg/kg): 2 to 4 h | mean EPP success rate ([3]; 0.98 mg/kg): 75.4±3.5% | mean EPP success rate ([3]; 1.44 mg/kg): 60.5±5.3% and 79.7±2.5% | physiological indicators of acute neurological toxicity ([4]; 2 mg/kg): did not elicit physiological indicators of acute neurological toxicity | physiological indicators of acute neurological toxicity ([4]; 8 mg/kg): did not elicit physiological indicators of acute neurological toxicity | behavioral seizure (%) ([4]; 1 mg/kg): 0, 0% | gait change (%) ([4]; 1 mg/kg): 0% | max Racine score ([4]; 1 mg/kg): 0, 0 | mortality (%) ([4]; 1 mg/kg): 0% | salivation (%) ([4]; 1 mg/kg): 0% | behavioral seizure (%) ([4]; 2 mg/kg): 0, 0% | gait change (%) ([4]; 2 mg/kg): 0% | max Racine score ([4]; 2 mg/kg): 0, 0 | mortality (%) ([4]; 2 mg/kg): 0% | salivation (%) ([4]; 2 mg/kg): 0% | behavioral seizure (%) ([4]; 8 mg/kg): 0, 0% | gait change (%) ([4]; 8 mg/kg): 0% | max Racine score ([4]; 8 mg/kg): 0, 0 | mortality (%) ([4]; 8 mg/kg): 0% | salivation (%) ([4]; 8 mg/kg): 0% | behavioral seizure (%) ([4]; 16 mg/kg): 0, 0% | gait change (%) ([4]; 16 mg/kg): 50% | max Racine score ([4]; 16 mg/kg): 0, 0 | mortality (%) ([4]; 16 mg/kg): 0% | salivation (%) ([4]; 16 mg/kg): 25% | behavioral signs of neurological toxicity during infusion [5]: not observed | behavioral seizure (%) ([5]; 0.36 mg/kg): 0, 0% | gait change (%) ([5]; 0.36 mg/kg): 0% | max Racine score ([5]; 0.36 mg/kg): 0, 0 | mortality (%) ([5]; 0.36 mg/kg): 0% | salivation (%) ([5]; 0.36 mg/kg): 0% | behavioral seizure (%) ([5]; 0.72 mg/kg): 0, 0% | gait change (%) ([5]; 0.72 mg/kg): 0% | max Racine score ([5]; 0.72 mg/kg): 0, 0 | mortality (%) ([5]; 0.72 mg/kg): 0% | salivation (%) ([5]; 0.72 mg/kg): 0% | behavioral seizure (%) ([5]; 1.44 mg/kg): 0, 0% | gait change (%) ([5]; 1.44 mg/kg): 0% | max Racine score ([5]; 1.44 mg/kg): 0, 0 | mortality (%) ([5]; 1.44 mg/kg): 0% | salivation (%) ([5]; 1.44 mg/kg): 0% | relationship between infusion dose rate and CSS (serum) [6]: linearly related to infusion dose | functional toxicity or loss of efficacy throughout the infusion period [7]: no evidence of functional toxicity or loss of efficacy | symptomatic rebound following cessation of infusion [7]: without symptomatic rebound | time by which all rats were deceased following cessation of infusion [7]: ≤ 12 h | time by which toxic signs resolved [7]: ≤ 14 days | time by which toxic signs stabilized [7]: ≤ 2 days | time to worsening of toxic signs following cessation of infusion [7]: 3 to 6 h | toxic signs compared to vehicle [7]: improved | respiratory and skeletal muscle weakness (BoNT/A-intoxicated mice): reversed respiratory and skeletal muscle weakness | respiratory function and survival (BoNT/A-intoxicated mice): improve respiratory function and prolong survival | muscle paralysis [8]: reverse muscle paralysis
